Patent US12252524B2, “GIP/GLP1 co-agonist compounds” (Eli Lilly and Company, priority 2018, dated 2025)
Numbered stars: 1 amine (or outer) side, 2 acyl side, 3 side chain; on linkers, the order of the positions; unused ones are H or OH. Square brackets hold non-standard residues; d marks the D form. Side chains are listed from the residue outwards. Peptide text beside a SMILES is read from it. * marks the point of attachment. C20 diacid = O=C(O)CCCCCCCCCCCCCCCCCCC(=O)*; γGlu = O=C(O)[C@H](CCC(=O)[*:2])N[*:1]; αMeL = CC(C)C[C@](C)(N)C(=O)O; Orn = NCCC[C@H](N)C(=O)O; AEEA = NCCOCCOCC(=O)O; Aib = CC(C)(N)C(=O)O

Tests used:
human GIP receptor = biological target: T1, human GIP receptor (Homo sapiens, UniProt P48546); test: [125I]-GIP binding (SPA), human GIP receptor; settings: read-out: hGIPR Ki, nM (SEM, n)
T1 construct: expressed in transfected cells; crude membranes
T1 sequence (P48546 22-466): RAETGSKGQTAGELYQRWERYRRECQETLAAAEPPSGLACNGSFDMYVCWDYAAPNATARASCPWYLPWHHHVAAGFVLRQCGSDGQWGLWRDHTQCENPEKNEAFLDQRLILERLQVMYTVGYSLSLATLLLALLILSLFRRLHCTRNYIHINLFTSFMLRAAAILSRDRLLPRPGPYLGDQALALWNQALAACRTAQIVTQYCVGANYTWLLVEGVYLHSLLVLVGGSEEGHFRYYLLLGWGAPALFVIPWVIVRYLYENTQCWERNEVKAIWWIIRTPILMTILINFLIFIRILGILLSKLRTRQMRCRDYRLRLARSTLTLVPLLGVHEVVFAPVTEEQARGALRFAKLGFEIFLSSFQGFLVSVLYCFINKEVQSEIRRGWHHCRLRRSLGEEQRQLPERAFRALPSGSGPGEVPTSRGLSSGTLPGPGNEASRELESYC

[1] = biological target: human GLP-1 receptor (GLP-1R) (Homo sapiens, UniProt P43220); test: cAMP pharmacological functional assay in presence of casein, hGLP-1R; format: cell-based; settings: HEK293 cells expressing hGLP-1R, 0.1% Casein, geometric mean; read-out: hGLP1R cAMP Rel EC50 nM (SEM, n)
Chain of human GLP-1 receptor (GLP-1R) (P43220 24-463): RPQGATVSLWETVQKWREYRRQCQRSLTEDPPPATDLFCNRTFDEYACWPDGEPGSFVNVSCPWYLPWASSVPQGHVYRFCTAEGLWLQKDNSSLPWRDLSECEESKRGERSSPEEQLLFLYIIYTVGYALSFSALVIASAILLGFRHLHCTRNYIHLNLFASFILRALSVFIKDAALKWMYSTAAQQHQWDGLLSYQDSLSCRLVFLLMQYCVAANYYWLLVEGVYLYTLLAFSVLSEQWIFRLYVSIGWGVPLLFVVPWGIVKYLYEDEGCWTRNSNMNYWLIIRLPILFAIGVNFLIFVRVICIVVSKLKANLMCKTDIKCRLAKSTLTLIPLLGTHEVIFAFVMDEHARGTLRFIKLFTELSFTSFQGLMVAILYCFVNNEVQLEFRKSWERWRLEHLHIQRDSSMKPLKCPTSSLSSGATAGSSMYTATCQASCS

human Gcg receptor = biological target: T2, human Gcg receptor (Homo sapiens, UniProt P47871); test: [125I]-Glucagon binding (SPA), human Gcg receptor; settings: read-out: hGLcgR Ki, nM (SEM, n)
T2 construct: expressed in transfected cells; crude membranes
T2 sequence (P47871 26-477): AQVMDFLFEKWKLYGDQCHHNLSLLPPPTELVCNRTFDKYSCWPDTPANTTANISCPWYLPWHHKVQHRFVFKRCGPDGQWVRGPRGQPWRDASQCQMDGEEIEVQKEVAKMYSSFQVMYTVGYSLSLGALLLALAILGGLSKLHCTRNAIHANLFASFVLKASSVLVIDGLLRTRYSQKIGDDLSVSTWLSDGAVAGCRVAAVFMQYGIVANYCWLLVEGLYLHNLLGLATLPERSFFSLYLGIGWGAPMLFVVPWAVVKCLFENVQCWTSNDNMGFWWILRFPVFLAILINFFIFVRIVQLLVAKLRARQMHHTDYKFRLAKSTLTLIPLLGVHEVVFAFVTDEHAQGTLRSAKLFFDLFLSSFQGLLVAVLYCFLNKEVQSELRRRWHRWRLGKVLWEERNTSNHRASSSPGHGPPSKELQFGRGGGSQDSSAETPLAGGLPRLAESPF
In short: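 Scintillation counts are taken after membranes and WGA beads incubate and settle for 12 hours at room temperature. Buffer is 25 mM HEPES, pH 7.4, with CaCl2, MgCl2, bacitracin and Tween-20. Ki values, from four-parameter IC50 fits, are geometric means over independent days.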

[2] = biological target: T3, gastric inhibitory peptide receptor (GIPR) (Homo sapiens, UniProt P48546); test: cAMP pharmacological functional assay in presence of casein, hGIPR; format: cell-based; settings: HEK293 cells expressing hGIPR, 0.1% Casein, geometric mean; read-out: hGIPR cAMP Rel EC50 nM (SEM, n)
T3 sequence (P48546 22-466): T1 sequence (P48546 22-466)

human GLP-1R [3] = biological target: T4, human GLP-1R (Homo sapiens, UniProt P43220); test: GLP-1R HEK293 cell membrane [35S]GTPγS binding assay; format: biochemical; set-up: expressed in transfected cells; host or cells: HEK293 cells expressing human GLP-1R; membranes; settings: HEK293 cell membranes expressing human GLP-1R, [35S]GTPγS binding; read-out: hGLP1R GTPgS Rel EC50 nM (SEM, n)
T4 sequence (P43220 24-463): as the sequence (P43220 24-463) above
In short: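 Membranes from HEK293 cells expressing the receptor incubated with peptide and […] [35S]GTPγS in HEPES pH 7.4 buffer with NaCl, MgCl2, saponin and BSA, 30 min at room temperature. Gαs-bound label captured by anti-Gαs antibody/SPA beads and counted; EC50 from four-parameter logistic fit.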

human GLP-1R [4] = biological target: T4, human GLP-1R; test: [125I]-GLP-1 binding (SPA), human GLP-1 receptor; set-up: expressed in transfected cells; crude membranes; settings: read-out: hGLP1R Ki, (nM) (SEM, n)
In short: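 Membranes: hypotonic lysis (50 mM Tris HCl, pH 7.5, protease inhibitors), Potter-Elvehjem homogenization, high-speed pellet (35000×g 1 h or 25000×g 30 min, 4° C.). Buffer: 25 mM HEPES pH 7.4, 2.5 mM CaCl2, 1 mM MgCl2. Four-parameter IC50 fit; Ki as geometric mean ± SEM.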

human GLP-1R [5] = biological target: T4, human GLP-1R; test: GLP-1R CHO cell β-arrestin recruitment assay; format: cell-based; set-up: host or cells: CHO-K1 PathHunter cells, assay-ready frozen; settings: for EC50: CHO-K1 cells, PathHunter β-arrestin-2 recruitment, 0.1% casein, read-out: hGLP1R B-Arrestin2 Rel EC50 uM (SEM, n); for hGLP1R B-Arrestin2 % Top: normalized to GLP-1 maximum control
In short: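 PathHunter CHO-K1 cells with ProLink-tagged human GLP-1R and enzyme-acceptor-tagged β-arrestin-2 treated with serially diluted peptides in assay buffer containing 0.1% hydrolyzed casein, 90 min at 37 °C.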

Row | Compound | Ki (human GIP receptor) | EC50 [1] | Ki (human Gcg receptor) | EC50 [2] | EC50 (human GLP-1R [3]) | Ki (human GLP-1R [4]) | EC50 (human GLP-1R [5]) | hGLP1R B-Arrestin2 % Top (human GLP-1R [5])
1 | CC[C@H](C)[C@H](NC(=O)[C@H](CC(C)C)NC(=O)[C@H](Cc1ccc(O)cc1)NC(=O)[C@H](CCC(=O)O)NC(=O)[C@@H](NC(=O)[C@H](Cc1ccccc1)NC(=O)[C@H](CCC(=O)O)NC(=O)C(C)(C)NC(=O)[C@H](CCC(N)=O)NC(=O)[C@H](C)NC(=O)[C@H](CCCCNC(=O)COCCOCCNC(=O)COCCOCCNC(=O)CC[C@H](NC(=O)CCCCCCCCCCCCCCCCCCC(=O)O)C(=O)O)NC(=O)[C@H](CCC(=O)O)NC(=O)[C@H](CC(=O)O)NC(=O)[C@H](CC(C)C)NC(=O)[C@](C)(CC(C)C)NC(=O)[C@@H](NC(=O)[C@H](CO)NC(=O)[C@H](Cc1ccc(O)cc1)NC(=O)[C@H](CC(=O)O)NC(=O)[C@H](CO)NC(=O)[C@@H](NC(=O)[C@H](Cc1ccccc1)NC(=O)[C@@H](NC(=O)CNC(=O)[C@H](CCC(=O)O)NC(=O)C(C)(C)NC(=O)[C@H](N)Cc1ccc(O)cc1)[C@@H](C)O)[C@@H](C)O)[C@@H](C)CC)[C@@H](C)CC)C(=O)N[C@@H](C)C(=O)NCC(=O)NCC(=O)N1CCC[C@H]1C(=O)N[C@@H](CO)C(=O)N[C@@H](CO)C(=O)NCC(=O)N[C@@H](C)C(=O)N1CCC[C@H]1C(=O)N1CCC[C@H]1C(=O)N1CCC[C@H]1C(=O)N[C@@H](CO)C(N)=O [Example 342] (H-[dY][Aib]EGTFTSDYSI[αMeL]LDEK([AEEA-AEEA-γGlu-C20 diacid])AQ[Aib]EFIEYLIAGGPSSGAPPPS-NH2; N-terminus assumed) | 0.129 nM | 0.127 nM | > 1000 nM | 0.159 nM | 0.414 nM | 15.4 nM | 0.035 µM | 20.7%
2 | CC[C@H](C)[C@H](NC(=O)[C@H](CC(C)C)NC(=O)[C@H](Cc1ccc(O)cc1)NC(=O)[C@@H](CCC(=O)O)NC(=O)[C@@H](NC(=O)[C@H](Cc1ccccc1)NC(=O)[C@H](C)NC(=O)C(C)(C)NC(=O)[C@H](CCC(N)=O)NC(=O)[C@H](C)NC(=O)[C@H](CCCCNC(=O)COCCOCCNC(=O)COCCOCCNC(=O)CC[C@H](NC(=O)CCCCCCCCCCCCCCCCCCC(=O)O)C(=O)O)NC(=O)[C@H](CCC(=O)O)NC(=O)[C@H](CC(=O)O)NC(=O)[C@H](CC(C)C)NC(=O)[C@](C)(CC(C)C)NC(=O)[C@@H](NC(=O)[C@H](CO)NC(=O)[C@H](Cc1ccc(O)cc1)NC(=O)[C@H](CC(=O)O)NC(=O)[C@H](CO)NC(=O)[C@@H](NC(=O)[C@H](Cc1ccccc1)NC(=O)[C@@H](NC(=O)CNC(=O)[C@H](CCC(=O)O)NC(=O)C(C)(C)NC(=O)[C@@H](N)Cc1ccc(O)cc1)[C@@H](C)O)[C@@H](C)O)[C@@H](C)CC)[C@@H](C)CC)C(=O)N[C@@H](C)C(=O)NCC(=O)NCC(=O)N1CCC[C@H]1C(=O)N[C@@H](CO)C(=O)N[C@@H](CO)C(=O)NCC(=O)N[C@@H](C)C(=O)N1CCC[C@H]1C(=O)N1CCC[C@H]1C(=O)N1CCC[C@H]1C(=O)N[C@@H](CO)C(N)=O [Example 343] (H-Y[Aib]EGTFTSDYSI[αMeL]LDEK([AEEA-AEEA-γGlu-C20 diacid])AQ[Aib]AFI[dE]YLIAGGPSSGAPPPS-NH2) | 0.0374 nM | 0.124 nM | > 1070 nM | 0.0422 nM | 0.522 nM | 13.3 nM | 0.0455 µM | 41.4%
3 | CC[C@H](C)[C@H](NC(=O)[C@H](CC(C)C)NC(=O)[C@H](Cc1ccc(O)cc1)NC(=O)[C@H](CCC(=O)O)NC(=O)[C@@H](NC(=O)[C@H](Cc1ccccc1)NC(=O)[C@H](C)NC(=O)C(C)(C)NC(=O)[C@H](CCC(N)=O)NC(=O)[C@H](C)NC(=O)[C@H](CCCCNC(=O)COCCOCCNC(=O)COCCOCCNC(=O)CC[C@H](NC(=O)CCCCCCCCCCCCCCCCCCC(=O)O)C(=O)O)NC(=O)[C@H](CCCCN)NC(=O)[C@H](CC(=O)O)NC(=O)[C@H](CC(C)C)NC(=O)[C@](C)(CC(C)C)NC(=O)[C@@H](NC(=O)[C@H](CO)NC(=O)[C@H](Cc1ccc(O)cc1)NC(=O)[C@H](CC(=O)O)NC(=O)[C@H](CO)NC(=O)[C@@H](NC(=O)[C@H](Cc1ccccc1)NC(=O)[C@@H](NC(=O)CNC(=O)[C@H](CCC(=O)O)NC(=O)C(C)(C)NC(=O)[C@@H](N)Cc1ccccc1)[C@@H](C)O)[C@@H](C)O)[C@@H](C)CC)[C@@H](C)CC)C(=O)N[C@@H](CCC(=O)O)C(=O)NCC(=O)NCC(=O)N1CCC[C@H]1C(=O)N[C@@H](CO)C(=O)N[C@@H](CO)C(=O)NCC(=O)N[C@@H](C)C(=O)N1CCC[C@H]1C(=O)N1CCC[C@H]1C(=O)N1CCC[C@H]1C(=O)N[C@@H](CO)C(N)=O [Example 327] (H-F[Aib]EGTFTSDYSI[αMeL]LDKK([AEEA-AEEA-γGlu-C20 diacid])AQ[Aib]AFIEYLIEGGPSSGAPPPS-NH2; N-terminus assumed) | 0.0667 nM | 0.27 nM | 114 nM | 0.0548 nM | 0.287 nM | 2.1 nM | 0.00379 µM | 41.6%
4 | CC[C@H](C)[C@H](NC(=O)[C@H](CC(C)C)NC(=O)[C@H](Cc1ccc(O)cc1)NC(=O)[C@H](CCC(=O)O)NC(=O)[C@@H](NC(=O)[C@H](Cc1ccccc1)NC(=O)[C@H](CCC(=O)O)NC(=O)C(C)(C)NC(=O)[C@H](CCC(N)=O)NC(=O)[C@H](C)NC(=O)[C@H](CCCCNC(=O)COCCOCCNC(=O)COCCOCCNC(=O)CC[C@H](NC(=O)CCCCCCCCCCCCCCCCCCC(=O)O)C(=O)O)NC(=O)[C@H](CCCN)NC(=O)[C@H](CC(=O)O)NC(=O)[C@H](CC(C)C)NC(=O)[C@](C)(CC(C)C)NC(=O)[C@@H](NC(=O)[C@H](CO)NC(=O)[C@H](Cc1ccc(O)cc1)NC(=O)[C@H](CC(=O)O)NC(=O)[C@H](CO)NC(=O)[C@@H](NC(=O)[C@H](Cc1ccccc1)NC(=O)[C@@H](NC(=O)CNC(=O)[C@H](CCC(=O)O)NC(=O)C(C)(C)NC(=O)[C@H](N)Cc1ccc(O)cc1)[C@@H](C)O)[C@@H](C)O)[C@@H](C)CC)C(C)C)C(=O)N[C@@H](C)C(=O)NCC(=O)NCC(=O)N1CCC[C@H]1C(=O)N[C@@H](CO)C(=O)N[C@@H](CO)C(=O)NCC(=O)N[C@@H](C)C(=O)N1CCC[C@H]1C(=O)N1CCC[C@H]1C(=O)N1CCC[C@H]1C(=O)N[C@@H](CO)C(N)=O [Example 359] (H-[dY][Aib]EGTFTSDYSI[αMeL]LD[Orn]K([AEEA-AEEA-γGlu-C20 diacid])AQ[Aib]EFVEYLIAGGPSSGAPPPS-NH2) | 0.0874 nM | 0.131 nM | > 982 nM | 0.172 nM | 0.496 nM | 2.59 nM | 0.0841 µM | 28.4%
